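Where inhibition never reached the appropriate level, the endpoint shown equals the highest concentration tested. Otherwise, values were interpolated linearly from a five-concentration, 48-hour dose response in 96-well plates. The concentration for 50% growth inhibition is given as GI50.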 Calls of active or inactive are those of the source. Rule as the data show it: active = GI50 up to about 1.1 µM and inactive = higher.
What was measured:
Experiment in all cases: DTP human tumour cell line panel, 48 h
CCRF-CEM = system: CCRF-CEM
HCT-15 = system: HCT-15
HOP-62 = system: HOP-62
IGROV-1 = system: IGROV-1
M14 = system: M14
MDA-MB-231 = system: MDA-MB-231
MDA-MB-435 = system: MDA-MB-435
Malme-3M = system: Malme-3M
NCI-H226 = system: NCI-H226
NCI-H460 = system: NCI-H460
NCI-H522 = system: NCI-H522
OVCAR-8 = system: OVCAR-8
RXF 393 = system: RXF 393
SF-539 = system: SF-539
SK-MEL-2 = system: SK-MEL-2
SK-OV-3 = system: SK-OV-3
SW-620 = system: SW-620
T47D = system: T47D
UACC-257 = system: UACC-257
UO-31 = system: UO-31

Structure (SMILES)	GI50 (CCRF-CEM)	GI50 (HCT-15) [µM]	GI50 (HOP-62)	GI50 (IGROV-1)	GI50 (M14)	GI50 (MDA-MB-231)	GI50 (MDA-MB-435)	GI50 (Malme-3M)	GI50 (NCI-H226)	GI50 (NCI-H460)	GI50 (NCI-H522)	GI50 (OVCAR-8)	GI50 (RXF 393)	GI50 (SF-539)	GI50 (SK-MEL-2)	GI50 (SK-OV-3)	GI50 (SW-620)	GI50 (T47D)	GI50 (UACC-257)	GI50 (UO-31)
CN(/N=C/c1ccccn1)C1=NCCN1	> 100 µM (inactive)	> 100	> 100 µM (inactive)	> 100 µM (inactive)	> 100 µM (inactive)	> 100 µM (inactive)	> 100 µM (inactive)	> 100 µM (inactive)	> 100 µM (inactive)	> 100 µM (inactive)	> 100 µM (inactive)	> 100 µM (inactive)	> 100 µM (inactive)	> 100 µM (inactive)	> 100 µM (inactive)	> 100 µM (inactive)	> 100 µM (inactive)	> 100 µM (inactive)	> 100 µM (inactive)	> 100 µM (inactive)
O=C(O)C1CCCCC1c1c2ccc(=O)c(O)c-2oc2c(O)c(O)ccc12 (configuration not stated)	0.18 µM (active)	–	31.6 µM (inactive)	26.2 µM (inactive)	64.7 µM (inactive)	18.6 µM (inactive)	16.7 µM (inactive)	95.7 µM (inactive)	12.1 µM (inactive)	37.7 µM (inactive)	14.5 µM (inactive)	22 µM (inactive)	69.7 µM (inactive)	–	> 100 µM (inactive)	50.6 µM (inactive)	17.6 µM (inactive)	46.2 µM (inactive)	> 100 µM (inactive)	44.4 µM (inactive)
CC1(C)N=C(c2ccccc2)SC12S[C@@H]1CCCC[C@H]1S2	> 100 µM (inactive)	> 100	> 100 µM (inactive)	> 100 µM (inactive)	> 100 µM (inactive)	> 100 µM (inactive)	> 100 µM (inactive)	56.2 µM (inactive)	> 100 µM (inactive)	> 100 µM (inactive)	> 100 µM (inactive)	> 100 µM (inactive)	> 100 µM (inactive)	> 100 µM (inactive)	> 100 µM (inactive)	> 100 µM (inactive)	29.4 µM (inactive)	35.8 µM (inactive)	41.5 µM (inactive)	> 100 µM (inactive)
CCOc1ccc(/N=N/C2C(=O)N(C(=O)CC(=O)Nc3ccccc3)N=C2C)cc1 (configuration not stated)	> 100 µM (inactive)	57.4	59.3 µM (inactive)	37.3 µM (inactive)	58.1 µM (inactive)	39.8 µM (inactive)	5.07 µM (inactive)	> 100 µM (inactive)	> 100 µM (inactive)	34.6 µM (inactive)	83.9 µM (inactive)	> 100 µM (inactive)	> 100 µM (inactive)	35.2 µM (inactive)	66.4 µM (inactive)	–	33.4 µM (inactive)	30.8 µM (inactive)	> 100 µM (inactive)	> 100 µM (inactive)
C=CCCC(On1c(-c2ccc(Cl)cc2)csc1=S)c1ccccc1 (configuration not stated)	12.4 µM (inactive)	8.05	90.6 µM (inactive)	20.2 µM (inactive)	13.9 µM (inactive)	68.9 µM (inactive)	4.56 µM (inactive)	14.6 µM (inactive)	26.7 µM (inactive)	–	12.4 µM (inactive)	98.6 µM (inactive)	29.7 µM (inactive)	26.9 µM (inactive)	14.9 µM (inactive)	–	8.73 µM (inactive)	17 µM (inactive)	33 µM (inactive)	42 µM (inactive)
COc1ccc(-c2cc(C3CC3)nc(SCC(=O)O)c2C#N)cc1	57.8 µM (inactive)	65.8	> 100 µM (inactive)	> 100 µM (inactive)	> 100 µM (inactive)	> 100 µM (inactive)	> 100 µM (inactive)	–	82.6 µM (inactive)	52.1 µM (inactive)	25.1 µM (inactive)	> 100 µM (inactive)	62.8 µM (inactive)	> 100 µM (inactive)	> 100 µM (inactive)	56.2 µM (inactive)	> 100 µM (inactive)	> 100 µM (inactive)	> 100 µM (inactive)	1.85 µM (inactive)
Cc1ccc(NC(=O)CC(=O)N2N=C(N(c3ccccc3)c3ccccc3)CC2c2ccccc2)cc1 (configuration not stated)	> 100 µM (inactive)	> 100	> 100 µM (inactive)	> 100 µM (inactive)	> 100 µM (inactive)	> 100 µM (inactive)	> 100 µM (inactive)	–	> 100 µM (inactive)	> 100 µM (inactive)	> 100 µM (inactive)	> 100 µM (inactive)	52.8 µM (inactive)	> 100 µM (inactive)	> 100 µM (inactive)	> 100 µM (inactive)	> 100 µM (inactive)	> 100 µM (inactive)	> 100 µM (inactive)	> 100 µM (inactive)
CCC(=O)N1C(=O)C(CC)(CC)C(=O)N1C(=O)CC	> 100 µM (inactive)	> 100	> 100 µM (inactive)	> 100 µM (inactive)	> 100 µM (inactive)	> 100 µM (inactive)	> 100 µM (inactive)	> 100 µM (inactive)	> 100 µM (inactive)	> 100 µM (inactive)	> 100 µM (inactive)	> 100 µM (inactive)	> 100 µM (inactive)	–	> 100 µM (inactive)	> 100 µM (inactive)	> 100 µM (inactive)	> 100 µM (inactive)	> 100 µM (inactive)	> 100 µM (inactive)
CCCCSC1=N/C(=C\c2ccco2)C(Cl)=N1	> 100 µM (inactive)	> 100	> 100 µM (inactive)	> 100 µM (inactive)	> 100 µM (inactive)	> 100 µM (inactive)	> 100 µM (inactive)	> 100 µM (inactive)	> 100 µM (inactive)	> 100 µM (inactive)	> 100 µM (inactive)	> 100 µM (inactive)	> 100 µM (inactive)	–	> 100 µM (inactive)	> 100 µM (inactive)	> 100 µM (inactive)	> 100 µM (inactive)	> 100 µM (inactive)	> 100 µM (inactive)
CCCCOc1ccc(S(=O)(=O)N/C(=N\O)Nc2ccc(Cl)cc2)cc1	19 µM (inactive)	14.6	17.9 µM (inactive)	–	15.2 µM (inactive)	16.4 µM (inactive)	15.9 µM (inactive)	17.7 µM (inactive)	24 µM (inactive)	15.4 µM (inactive)	14.7 µM (inactive)	17.9 µM (inactive)	15.2 µM (inactive)	20.8 µM (inactive)	16.3 µM (inactive)	–	17.5 µM (inactive)	6.64 µM (inactive)	15.5 µM (inactive)	12.2 µM (inactive)
O=C(O)CCC(NC(=O)c1ccc(Oc2nc3ccccc3nc2C(=O)O)cc1)C(=O)O (configuration not stated)	> 100 µM (inactive)	> 100	> 100 µM (inactive)	> 100 µM (inactive)	> 100 µM (inactive)	> 100 µM (inactive)	> 100 µM (inactive)	> 100 µM (inactive)	> 100 µM (inactive)	> 100 µM (inactive)	> 100 µM (inactive)	> 100 µM (inactive)	> 100 µM (inactive)	–	> 100 µM (inactive)	> 100 µM (inactive)	> 100 µM (inactive)	> 100 µM (inactive)	> 100 µM (inactive)	> 100 µM (inactive)
Cc1ccc(C(=O)C#Cc2cn(C3CC(O)C(CO)O3)c(=O)[nH]c2=O)cc1 (configuration not stated)	–	> 100	> 100 µM (inactive)	> 100 µM (inactive)	53.1 µM (inactive)	> 100 µM (inactive)	> 100 µM (inactive)	15.4 µM (inactive)	> 100 µM (inactive)	> 100 µM (inactive)	11.5 µM (inactive)	> 100 µM (inactive)	> 100 µM (inactive)	> 100 µM (inactive)	> 100 µM (inactive)	> 100 µM (inactive)	31 µM (inactive)	23.6 µM (inactive)	> 100 µM (inactive)	> 100 µM (inactive)
N#CC(C#N)=Cn1c(=S)[nH]c2ccc([N+](=O)[O-])cc21	> 100 µM (inactive)	–	> 100 µM (inactive)	> 100 µM (inactive)	> 100 µM (inactive)	68.7 µM (inactive)	> 100 µM (inactive)	> 100 µM (inactive)	> 100 µM (inactive)	> 100 µM (inactive)	> 100 µM (inactive)	> 100 µM (inactive)	> 100 µM (inactive)	> 100 µM (inactive)	> 100 µM (inactive)	> 100 µM (inactive)	> 100 µM (inactive)	> 100 µM (inactive)	> 100 µM (inactive)	> 100 µM (inactive)
CN1CCN(C(=S)N(C)C(=O)c2ccco2)CC1	> 100 µM (inactive)	> 100	–	> 100 µM (inactive)	> 100 µM (inactive)	> 100 µM (inactive)	> 100 µM (inactive)	> 100 µM (inactive)	> 100 µM (inactive)	> 100 µM (inactive)	> 100 µM (inactive)	> 100 µM (inactive)	> 100 µM (inactive)	–	> 100 µM (inactive)	–	> 100 µM (inactive)	> 100 µM (inactive)	> 100 µM (inactive)	> 100 µM (inactive)
Cc1cccc(C)c1NC(=O)C(Cc1c[nH]c2ccccc12)NC(=O)OCc1ccccc1 (configuration not stated)	17.8 µM (inactive)	22.3	41 µM (inactive)	19.6 µM (inactive)	11.5 µM (inactive)	16.7 µM (inactive)	14.7 µM (inactive)	20.1 µM (inactive)	–	17.7 µM (inactive)	20.1 µM (inactive)	27.3 µM (inactive)	13.9 µM (inactive)	20.2 µM (inactive)	16.9 µM (inactive)	22.8 µM (inactive)	27.8 µM (inactive)	20.6 µM (inactive)	14.5 µM (inactive)	10.3 µM (inactive)

Reference: ChEMBL document CHEMBL1201862, “PubChem BioAssay data set” (2004)
